The target in this experiment is T1, MLCK (MLCK2) (Homo sapiens, UniProt Q32MK0).
T1 construct: purchased Thermo Fisher Scientific (Life Technologies) SelectScreen
The experiment is described as follows: SelectScreen LanthaScreen. The experiment is classed as binding. The conditions noted are these: read-out: % displacement. An outline of the steps:
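Percent values come from Thermo SelectScreen profiling of NU5455, combining activity and binding assays. CSF1R was run in Z'LYTE format at Km app ATP, and CAMK1 in Adapta format with ATP listed at 10.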
A general note: In TR-FRET formats the signal depends on donor and acceptor labels being close together.

T1 sequence (Q32MK0 whole entry): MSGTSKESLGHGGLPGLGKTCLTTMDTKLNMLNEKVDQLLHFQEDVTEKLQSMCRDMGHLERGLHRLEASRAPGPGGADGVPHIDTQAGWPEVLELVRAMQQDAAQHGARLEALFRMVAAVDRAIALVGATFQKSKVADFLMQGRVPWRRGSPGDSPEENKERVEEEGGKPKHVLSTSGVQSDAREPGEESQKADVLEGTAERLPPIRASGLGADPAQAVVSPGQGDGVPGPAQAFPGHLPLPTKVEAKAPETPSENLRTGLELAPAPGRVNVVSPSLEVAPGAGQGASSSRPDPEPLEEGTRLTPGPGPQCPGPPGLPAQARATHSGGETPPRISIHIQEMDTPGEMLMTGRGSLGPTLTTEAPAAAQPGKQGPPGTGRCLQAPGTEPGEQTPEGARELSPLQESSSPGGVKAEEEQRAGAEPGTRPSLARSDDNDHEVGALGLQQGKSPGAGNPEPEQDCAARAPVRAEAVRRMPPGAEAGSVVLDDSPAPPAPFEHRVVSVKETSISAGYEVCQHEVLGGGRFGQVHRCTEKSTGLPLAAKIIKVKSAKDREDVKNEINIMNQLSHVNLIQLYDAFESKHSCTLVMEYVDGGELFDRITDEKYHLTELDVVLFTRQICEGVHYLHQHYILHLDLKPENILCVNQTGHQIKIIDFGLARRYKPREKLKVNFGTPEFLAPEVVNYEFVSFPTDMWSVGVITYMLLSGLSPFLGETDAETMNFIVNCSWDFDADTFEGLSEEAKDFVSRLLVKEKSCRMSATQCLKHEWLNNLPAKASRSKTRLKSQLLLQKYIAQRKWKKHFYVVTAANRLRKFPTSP

In the case of `CN(C(=O)CN1CCOCC1)c1ccc2sc3c(-c4cccc5c(=O)cc(N6CC7CCC(C6)O7)oc45)cccc3c2c1` [NU5455], the inhibition at 1 µM was found to be 1.5%.

(Values after article PMC6934184, “Selective DNA-PKcs inhibition extends the therapeutic index of localized radiotherapy and chemotherapy” (The Journal of Clinical Investigation, 2019).)
